Results as given in patent US20140093598A1, “COMPOUNDS AND EXTRACTS FROM GNETUM AFRICANUM AND ANTI-INFLAMMATORY ACTIVITY RELATED THERETO” (PHARMAFRI-CAN INC., priority 2010, published 2014).
Read-outs that look alike come from different tables or passages of the source.

Columns and labels:
[1] = tested on: LPS induced TNF-α production in RAW 264.7 cells; assay: LPS-induced TNF-α production in RAW 264.7 cells, ELISA of culture supernatants; type: cell-based; settings: for IC50: Mus musculus, RAW264.7
Protocol: Cell culture supernatants were used for the determination of TNF-α production by ELISA (R&D systems).
RAW 264.7 cells were treated with G. africanum leaf and stem extracts (200 μg/ml) for 1 hour and were then induced with LPS (10 μg/ml) for 18 hr. Cell culture supernatants were used for the determination of TNF-α production by ELISA (R&D systems).
Methanol, ethyl acetate and 95% ethanol stem extracts were further analyzed in a dose dependent manner (25-200 μg/ml).

[2] = tested on: LPS induced TNF-α production in RAW 264.7 cells; settings: reported by Iyori et al. 2008; cited from earlier work

## Oc1ccc(/C=C/c2cc(O)cc(O)c2)cc1 [resveratrol, (E)-5-(4-hydroxystyryl)benzene-1,3-diol]
[1]; resveratrol 1 μM-100 μM, 1 hour pre-treatment, LPS 10 μg/ml for 18 hr, read-out: IC50, anti-inflammatory activity of resveratrol (FIG. 3)
  IC50: 50 µM
[1]; same value as 50 μM, restated in μg/ml, read-out: IC50, anti-inflammatory activity of resveratrol (FIG. 3), expressed by mass
  IC50: 12 µg/mL
[1]; resveratrol at 50 μM and 100 μM, FIG. 3A
  Inhibition of LPS-induced TNF-α production: inhibited LPS-induced TNF-α production
[2]
  Inhibition of LPS induced TNF-α production: could inhibit LPS induced TNF-α production
